Patent publication US20110065632A1, “PHARMACEUTICAL COMPOSITIONS OF SOMATOSTATIN-DOPAMINE CONJUGATES” (priority 2008, published 2011)
Where two headings read alike, the source gives them in different places. Numbered stars: 1 amine (or outer) side, 2 acyl side, 3 side chain; on linkers, the order of the positions; unused ones are H or OH. Bridge positions count the residues as written; N and C are the ends. Square brackets hold non-standard residues; d marks the D form. Peptide text beside a SMILES is read from it. * marks the point of attachment. X1 = CCCN1C[C@H](CSCC(=O)*)C[C@@H]2c3cccc4[nH]cc(c34)C[C@H]21; X2 = CN1C[C@H](CSCC(=O)*)C[C@@H]2c3cccc4[nH]cc(c34)C[C@H]21; Pipz(1-CH2CO,4-CH2CH2NH) = O=C(CN1CCN(CCN[*:1])CC1)[*:2]; Abu = CC[C@H](N)C(=O)O; AEEA = NCCOCCOCC(=O)O

Key:
[1] = molecular target: T1, hsst3 (Homo sapiens, UniProt P32745); experiment: Somatostatin receptor radioligand binding assay, hsst3
T1 construct: expressed in transfected cells
Procedure: (§1) Specificity and selectivity of the somatostatin analogues used to synthesize the somatostatin-dopamine chimers were determined by a radioligand binding assay on CHO-K1 cells stably transfected with each of the SSTR subtypes, as follows. Somatostatin analogs are also described in U.S. Patent Application Publication No. 02210006790. The complete coding sequences of genomic fragments of the SSTR 1 (e.g., Genbank accession No. M81829), SSTR 2 (e.g., Genbank accession No. M81830), SSTR 3 (e.g., Genbank accession No. L07062), and SSTR 4 (e.g., Genbank accession No. AL049651) genes and a cDNA clone for SSTR 5 (e.g., Genbank accession No. D16827) was subcloned into the mammalian expression vector pCMV (Life Technologies, Milano, Italy). Other SSTR sequences are known to the skilled artisan. Clonal cell lines stably expressing SSTR's 1-5 were obtained by transfection into CHO-K1 cells (ATCC, Manassas, Va., USA) using the calcium phosphate co-precipitation method (Davis L, et al., 1994 In: Basic methods in Molecular Biology, 2nd edition, Appleton & Lange, Norwalk, Conn., USA: 611-646). The plasmid pRSV-neo (ATCC) was included as a selectable marker. Clonal cell lines were selected in RPMI 1640 media containing 0.5 mg/mL of G418 (Life Technologies, Milano, Italy), ring cloned, and expanded into culture.
(§2) Membranes for in vitro receptor binding assays were obtained by homogenizing the CHO-K1 cells expressing the SSTR's subtypes in ice-cold 50 mM Tris-HCl and centrifuging twice at 39,000 g (10 min), with an intermediate resuspension in fresh buffer. The final pellets were resuspended in 10 mM Tris-HCl for assay.
(§3) For the SSTR 1, 3, 4, and 5 assays, aliquots of the membrane preparations were incubated 90 minutes at 25° C. with 0.05 nM [^125I-Tyr11]SS-14 in 50 mM HEPES (pH 7.4) containing 10 mg/mL BSA, 5 mM MgCl2, 200 KIU/mL Trasylol, 0.02 mg/mL bacitracin, and 0.02 mg/mL phenylmethylsuphonyl fluoride. The final assay volume was 0.3 mL.
(§4) For the SSTR 2 assay, 0.05 nM [^125I]MK-678 was employed as the radioligand and the incubation time was 90 minutes at 25° C. The incubations were terminated by rapid filtration through GF/C glass microfiber filters (Whatman Co.) (pre-soaked in 0.3% polyethylenimine) using a BRANDEL filtration manifold. Each tube and filter was washed three times with 5 mL aliquots of ice-cold buffer. Specific binding was defined as the total radioligand bound minus that bound in the presence of 1000 nM SS-14 for SSTR 1, 3, 4, and 5, or 1000 nM MK-678 for SSTR2.
(§5) Using the discussed assays, the inhibition constants (Ki) for the five human somatostatin receptors (hSSTR1-hSSTR5) and the dopamine-2 receptor (hUTII and hDA2) were measured for the exemplified somatostatin-dopamine conjugates, as follows: […]

[2] = molecular target: hDA2; experiment: Dopamine-2 receptor radioligand binding assay; parameters: species or system human; conditions: [3H]spiperone
Procedure: Specificity and selectivity for the dopamine-2 receptor of the dopamine analogues used to synthesize the somatostatin-dopamine chimers may be determined by a radioligand binding assay as follows.
Crude membranes were prepared by homogenization of frozen rat corpus striatum (Zivic Laboratories, Pittsburgh, Pa., USA) in 20 mL of ice-cold 50 mM Tris-HCl with a Brinkman Polytron cell disrupter (setting 6, 15 sec). Buffer was added to obtain a final volume of 40 mL, and the homogenate was centrifuged in a Sorval SS-34 rotor at 39,000 g for 10 minutes at 0-4° C. The resulting supernatant was decanted and discarded. The pellet was rehomogenized in ice-cold buffer, pre-incubated at 37° C. for 10 min, diluted, and centrifuged as before. The final pellet was resuspended in buffer and held on ice for the receptor binding assay.
For assay, aliquots of the washed membrane preparations and test compounds were incubated for 15 minutes (37° C.) with 0.25 nM [^3HI]spiperone (16.5 Ci.mmol, New England Nuclear, Boston, Mass., USA) in 50 mM Tris HCl, 120 mM NaCl, 5 mM KCl, 2 mM CaCl2, 1 mM MgCl2. The final assay volume was 1.0 mL. The incubations were terminated by rapid filtration through GF/B glass fibre filters using a Brandel filtration manifold. Each tube and filter was then washed three times with 5-mL aliquots of ice-cold buffer. Specific binding was defined as the total radioligand bound minus that bound in the presence of 1000 nM (+) butaclamol.
as §5

[3] = molecular target: T2, hsst2 (Homo sapiens, UniProt P30874); experiment: Somatostatin receptor radioligand binding assay, hsst2; conditions: CHO-K1 membranes, [125I]MK-678; read-out: hsst2 Ki
T2 construct: expressed in transfected cells
Procedure: as §1, §2, §4

[4] = molecular target: T3, hUTII (Homo sapiens, UniProt Q9UKP6); experiment: hUTII inhibition constant; type: binding; conditions: read-out: hUTII Ki
T3 sequence (Q9UKP6 1-389): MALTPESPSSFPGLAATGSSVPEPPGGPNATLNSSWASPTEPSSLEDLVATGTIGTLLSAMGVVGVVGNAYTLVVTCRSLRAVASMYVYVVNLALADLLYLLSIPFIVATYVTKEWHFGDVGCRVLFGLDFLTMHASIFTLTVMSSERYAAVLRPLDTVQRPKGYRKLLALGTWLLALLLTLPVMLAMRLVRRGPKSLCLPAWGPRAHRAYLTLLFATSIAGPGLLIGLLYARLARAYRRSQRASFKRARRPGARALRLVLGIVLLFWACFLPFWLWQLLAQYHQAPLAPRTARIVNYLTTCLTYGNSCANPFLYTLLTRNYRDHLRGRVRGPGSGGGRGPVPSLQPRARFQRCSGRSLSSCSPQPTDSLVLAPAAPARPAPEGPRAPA
Procedure: as §5

[5] = molecular target: T4, hsst1 (Homo sapiens, UniProt P30872); experiment: Somatostatin receptor radioligand binding assay, hsst1; conditions: CHO-K1 membranes, [125I-Tyr11]SS-14; read-out: hsst1 Ki
T4 construct: expressed in transfected cells
Procedure: as §1, §2, §3, §4, §5

[6] = molecular target: T5, hsst5 (Homo sapiens, UniProt P35346); experiment: Somatostatin receptor radioligand binding assay, hsst5; conditions: CHO-K1 membranes, [125I-Tyr11]SS-14
T5 construct: expressed in transfected cells
Procedure: as §1, §2, §3, §4

[7] = CHO-K1 membranes, [125I-Tyr11]SS-14, read-out: hsst3 Ki

T4 sequence (P30872 whole entry): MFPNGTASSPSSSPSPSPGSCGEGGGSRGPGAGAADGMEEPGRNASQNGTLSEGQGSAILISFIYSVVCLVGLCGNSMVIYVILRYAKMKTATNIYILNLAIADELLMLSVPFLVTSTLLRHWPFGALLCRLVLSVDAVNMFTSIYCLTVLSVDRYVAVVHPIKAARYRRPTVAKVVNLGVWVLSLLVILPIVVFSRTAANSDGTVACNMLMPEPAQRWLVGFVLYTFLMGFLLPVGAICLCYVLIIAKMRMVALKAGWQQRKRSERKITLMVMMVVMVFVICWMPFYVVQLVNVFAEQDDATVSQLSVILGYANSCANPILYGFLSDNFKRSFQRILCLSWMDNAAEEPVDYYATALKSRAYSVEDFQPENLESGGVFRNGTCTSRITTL
T2 sequence (P30874 whole entry): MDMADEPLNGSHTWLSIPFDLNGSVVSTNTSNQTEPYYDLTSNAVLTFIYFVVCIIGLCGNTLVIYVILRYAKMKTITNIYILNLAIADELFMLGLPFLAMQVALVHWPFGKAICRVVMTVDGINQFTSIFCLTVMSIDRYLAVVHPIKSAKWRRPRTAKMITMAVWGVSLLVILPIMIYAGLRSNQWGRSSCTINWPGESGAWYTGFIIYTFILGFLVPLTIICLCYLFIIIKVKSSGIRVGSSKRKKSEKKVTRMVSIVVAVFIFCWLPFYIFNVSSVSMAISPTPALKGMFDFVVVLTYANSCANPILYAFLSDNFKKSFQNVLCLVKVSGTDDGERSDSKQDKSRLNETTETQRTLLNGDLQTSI
T5 sequence (P35346 whole entry): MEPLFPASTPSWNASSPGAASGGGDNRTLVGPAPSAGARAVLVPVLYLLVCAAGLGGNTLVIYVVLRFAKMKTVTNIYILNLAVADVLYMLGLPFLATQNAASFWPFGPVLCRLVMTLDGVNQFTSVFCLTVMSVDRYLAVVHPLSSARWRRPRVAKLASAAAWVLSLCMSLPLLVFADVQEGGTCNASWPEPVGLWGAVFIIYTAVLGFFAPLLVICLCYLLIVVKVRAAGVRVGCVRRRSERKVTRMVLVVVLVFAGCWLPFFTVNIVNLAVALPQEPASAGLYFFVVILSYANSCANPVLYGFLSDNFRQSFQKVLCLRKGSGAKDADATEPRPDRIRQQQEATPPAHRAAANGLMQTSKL
T1 sequence (P32745 whole entry): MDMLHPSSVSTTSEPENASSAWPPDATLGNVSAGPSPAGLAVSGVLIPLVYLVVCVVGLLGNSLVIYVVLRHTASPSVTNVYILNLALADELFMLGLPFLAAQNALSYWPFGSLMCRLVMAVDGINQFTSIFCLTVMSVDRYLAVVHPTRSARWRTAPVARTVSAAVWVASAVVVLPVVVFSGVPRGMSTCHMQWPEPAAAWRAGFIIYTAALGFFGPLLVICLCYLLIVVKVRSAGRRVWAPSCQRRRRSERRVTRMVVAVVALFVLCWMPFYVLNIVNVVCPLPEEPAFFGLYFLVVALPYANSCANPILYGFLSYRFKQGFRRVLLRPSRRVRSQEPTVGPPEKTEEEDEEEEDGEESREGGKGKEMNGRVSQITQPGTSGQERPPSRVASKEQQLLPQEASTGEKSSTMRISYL

| SMILES | Ki [1, 7] | Ki [2] | Ki [3] | Ki [4] | Ki [5] | Ki [1] | Ki ([6]; hsst5 Ki) | Ki ([6]; read-out: hsst5 Ki) |
| --- | --- | --- | --- | --- | --- | --- | --- | --- |
| CCCN1C[C@H](CSCC(=O)N[C@H](Cc2ccccc2)C(=O)N[C@H]2CSSC[C@@H](C(=O)N[C@H](C(N)=O)[C@@H](C)O)NC(=O)[C@H](C(C)C)NC(=O)[C@H](CCCCN)NC(=O)[C@@H](Cc3c[nH]c4ccccc34)NC(=O)[C@H](Cc3ccc(OC(=O)CSC[C@@H]4C[C@@H]5c6cccc7[nH]cc(c67)C[C@H]5N(CCC)C4)c(I)c3)NC2=O)C[C@@H]2c3cccc4[nH]cc(c34)C[C@H]21 [Example 3] | 235 nM | 16.7 nM | 0.37 nM | 73.5 nM | 1000 nM | – | – | – |
| CCCN1C[C@H](CSCC(=O)N[C@H](Cc2ccccc2)C(=O)NCCOCCOCC(=O)N[C@H](Cc2ccccc2)C(=O)N[C@H]2CSSC[C@@H](C(=O)N[C@H](C(N)=O)[C@@H](C)O)NC(=O)[C@H](C(C)C)NC(=O)[C@H](CCCCN)NC(=O)[C@@H](Cc3c[nH]c4ccccc34)NC(=O)[C@H](Cc3ccc(O)c(I)c3)NC2=O)C[C@@H]2c3cccc4[nH]cc(c34)C[C@H]21 [Example 4] | 397 nM | 29.6 nM | 0.84 nM | 83.7 nM | 1000 nM | – | – | – |
| CCCN1C[C@H](CSCC(=O)NCCN2CCN(CC(=O)N[C@H](Cc3ccccc3)C(=O)N[C@H]3CSSC[C@@H](C(=O)N[C@H](C(N)=O)[C@@H](C)O)NC(=O)[C@H](C(C)C)NC(=O)[C@H](CCCCN)NC(=O)[C@@H](Cc4c[nH]c5ccccc45)NC(=O)[C@H](Cc4ccc(O)c(I)c4)NC3=O)CC2)C[C@@H]2c3cccc4[nH]cc(c34)C[C@H]21 [Example 25] | 423 nM | 345 nM | 1.09 nM | 233 nM | 1000 nM | – | – | – |
| CCCN1C[C@H](CSCC(=O)N[C@H](Cc2ccccc2)C(=O)N[C@H]2CSSC[C@@H](C(=O)N[C@H](C(N)=O)[C@@H](C)O)NC(=O)[C@H](C(C)C)NC(=O)[C@H](CCCCN)NC(=O)[C@@H](Cc3c[nH]c4ccccc34)NC(=O)[C@H](Cc3ccc(O)c(I)c3)NC2=O)C[C@@H]2c3cccc4[nH]cc(c34)C[C@H]21 [Example 26] | 135 nM | 34 nM | 0.4 nM | 53.2 nM | 731 nM | – | – | – |
| CC[C@@H]1NC(=O)[C@H](CCCCN)NC(=O)[C@@H](Cc2c[nH]c3ccccc23)NC(=O)[C@H](Cc2ccc(O)cc2)NC(=O)[C@@H](NC(=O)[C@@H](Cc2ccc(O)cc2)NC(=O)[C@@H](Cc2ccc(O)cc2)NC(=O)[C@H](CCCCN)NC(=O)CN2CCN(CCNC(=O)CSC[C@@H]3C[C@@H]4c5cccc6[nH]cc(c56)C[C@H]4N(C)C3)CC2)CSSC[C@@H](C(=O)N[C@H](C(N)=O)[C@@H](C)O)NC1=O [Example 32] (X2-[Pipz(1-CH2CO,4-CH2CH2NH)]K[dY][dY]CY[dW]K[Abu]CT-NH2; disulfide 5-10) | – | 136 nM | 0.22 nM | 267 nM | – | 45.6 nM | 13.8 nM | – |
| CC[C@@H]1NC(=O)[C@H](CCCCN)NC(=O)[C@@H](Cc2c[nH]c3ccccc23)NC(=O)[C@H](Cc2ccc(O)cc2)NC(=O)[C@@H](NC(=O)[C@@H](Cc2ccc(O)cc2)NC(=O)[C@@H](Cc2ccc(O)cc2)NC(=O)[C@H](CCCCN)NC(=O)CSC[C@@H]2C[C@@H]3c4cccc5[nH]cc(c45)C[C@H]3N(C)C2)CSSC[C@@H](C(=O)N[C@H](C(N)=O)[C@@H](C)O)NC1=O [Example 33] (X2-K[dY][dY]CY[dW]K[Abu]CT-NH2; disulfide 4-9) | – | 206 nM | 0.2 nM | 37.7 nM | – | 65.1 nM | 9.82 nM | – |
| CC[C@@H]1NC(=O)[C@H](CCCCN)NC(=O)[C@@H](Cc2c[nH]c3ccccc23)NC(=O)[C@H](Cc2ccc(O)cc2)NC(=O)[C@@H](NC(=O)[C@@H](Cc2ccc(O)cc2)NC(=O)[C@@H](Cc2ccc(O)cc2)NC(=O)[C@H](CCCCN)NC(=O)COCCOCCNC(=O)CSC[C@@H]2C[C@@H]3c4cccc5[nH]cc(c45)C[C@H]3N(C)C2)CSSC[C@@H](C(=O)N[C@H](C(N)=O)[C@@H](C)O)NC1=O [Example 34] ({X2-AEEA}-K[dY][dY]CY[dW]K[Abu]CT-NH2; disulfide 4-9) | – | 114 nM | 0.23 nM | 211 nM | – | 48.4 nM | 8.6 nM | – |
| CCCN1C[C@H](CSCC(=O)N[C@@H](CCCCN)C(=O)N[C@H](Cc2ccc(O)cc2)C(=O)N[C@H](Cc2ccc(O)cc2)C(=O)N[C@H]2CSSC[C@@H](C(=O)N[C@H](C(N)=O)[C@@H](C)O)NC(=O)[C@H](CC)NC(=O)[C@H](CCCCN)NC(=O)[C@@H](Cc3c[nH]c4ccccc34)NC(=O)[C@H](Cc3ccc(O)cc3)NC2=O)C[C@@H]2c3cccc4[nH]cc(c34)C[C@H]21 [Example 35] (X1-K[dY][dY]CY[dW]K[Abu]CT-NH2; disulfide 4-9) | 109 nM | 55.8 nM | 0.27 nM | 134 nM | – | – | – | 13.6 nM |
| CCCN1C[C@H](CSCC(=O)NCCN2CCN(CC(=O)NCCN3CCN(CC(=O)N[C@H](Cc4ccccc4)C(=O)N[C@H]4CSSC[C@@H](C(=O)N[C@H](C(N)=O)[C@@H](C)O)NC(=O)[C@H](CC)NC(=O)[C@H](CCCCN)NC(=O)[C@@H](Cc5c[nH]c6ccccc56)NC(=O)[C@H](Cc5ccc(O)cc5)NC4=O)CC3)CC2)C[C@@H]2c3cccc4[nH]cc(c34)C[C@H]21 [Example 36] (X1-[Pipz(1-CH2CO,4-CH2CH2NH)][Pipz(1-CH2CO,4-CH2CH2NH)][dF]CY[dW]K[Abu]CT-NH2; disulfide 4-9) | 145 nM | 328 nM | 1.67 nM | 3090 nM | – | – | – | 53.5 nM |
| CC[C@@H]1NC(=O)[C@H](CCCCN)NC(=O)[C@@H](Cc2c[nH]c3ccccc23)NC(=O)[C@H](Cc2ccc(O)cc2)NC(=O)[C@@H](NC(=O)[C@@H](Cc2ccccc2)NC(=O)CN2CCN(CCNC(=O)CSC[C@@H]3C[C@@H]4c5cccc6[nH]cc(c56)C[C@H]4N(C)C3)CC2)CSSC[C@@H](C(=O)N[C@H](C(N)=O)[C@@H](C)O)NC1=O [Example 38] | 61.9 nM | 411 nM | 0.35 nM | 1190 nM | – | – | – | 28.1 nM |
